Assay results taken from BigSolDB 2.1.

CC(=O)[C@@]1(O)CC[C@H]2[C@@H]3CCC4=CC(=O)CC[C@]4(C)[C@H]3C(O)C[C@@]21C (stereo in doubt)
solubility (mole fraction)
Conditions | 278.15 K | 283.15 K | 288.15 K | 293.15 K | 298.15 K | 303.15 K | 308.15 K | 313.15 K
in DMF | 0.0659 | 0.0722 | 0.0753 | 0.0825 | 0.0943 | 0.1 | 0.11 | 0.119
in acetone | 0.00679 | 0.00761 | 0.00804 | 0.00859 | 0.0095 | 0.0106 | 0.0115 | 0.0123
in chloroform | 0.0129 | 0.0134 | 0.0141 | 0.0146 | 0.0157 | 0.016 | 0.0172 | 0.0189
in methanol | 0.0139 | 0.0147 | 0.0159 | 0.0172 | 0.0181 | 0.0206 | 0.0232 | 0.0249
in n-propanol | 0.00838 | 0.00978 | 0.0112 | 0.0129 | 0.0134 | 0.0143 | 0.0157 | 0.0169
in water | 1.39e-05 | 1.73e-05 | 2.08e-05 | 2.43e-05 | 2.77e-05 | 3.47e-05 | 3.64e-05 | 3.98e-05
